Experimental data reported in patent US9376420B2 (YUHAN CORPORATION, priority 2012, dated 2016).

Molecular target: T1, human LXRβ (Homo sapiens, UniProt P55055)
T1 construct: expressed in transfected cells; host or cells: HEK293 cells (ATCC CRL-1573), transient transfection with pFA-hLXRβ/GAL4 and pUAS
T1 sequence (P55055 222-460 limits assumed): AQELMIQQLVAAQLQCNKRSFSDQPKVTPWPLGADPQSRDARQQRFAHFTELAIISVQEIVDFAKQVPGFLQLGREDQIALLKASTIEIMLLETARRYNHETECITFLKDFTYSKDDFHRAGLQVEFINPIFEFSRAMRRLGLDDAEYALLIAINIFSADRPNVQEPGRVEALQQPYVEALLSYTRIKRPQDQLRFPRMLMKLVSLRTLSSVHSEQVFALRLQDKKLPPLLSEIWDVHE
Assay: Assay for Transcriptional Activity of LXRβ (GAL4-hLXRβ LBD luciferase reporter, transient transfection)
Type: cell-based
Conditions: HEK293 cells transfected with pFA-hLXRβ/GAL4 and pUAS, 24 hours; for Emax: fold value in comparison with the control (DMSO-treated group); for EC50: increase of transcriptional activity of LXRβ, average of three independent tests
From the text: The ligand-binding domain (LBD) cDNA of human LXRβ was inserted into an expression vector (pFA, Stratagene, USA) site adjacent to the yeast GAL4 transcription factor DNA binding domain to prepare an expression construct (pFA-hLXRβ/GAL4) (Willey et al., Genes & Development 9 1033-1045 (1995). The GAL4-responsive luciferase reporter plasmid, i.e., pUAS (Stratagene, USA), contained five copies of the GAL4 response element placed adjacent to the promoter and the luciferase reporter gene. The pFA-hLXRβ/GAL4 and pUAS were introduced into mammalian cells through transient transfection, followed by measuring the transcriptional activity of LXRβ.
HEK293 cells (human kidney cells, sATCC, CRL-1573) were incubated at a T-75 flask containing a DMEM supplemented with 10% fetal bovine serum (FBS) in a 37° C., until they reach about 70˜80% confluency. The culture media containing the cells was added to each well of a 96-well plate in a density of 5×10^4 cells per well. The pFA-hLXRβ/GAL4 and pUAS was transfected to the cells using a cationic-lipid transfection reagent (Lipofectamine™, Invitrogen), through culturing at 37° C. for 3 hours for transient transfection according to the manufacturer's instruction. The test compounds were dissolved in dimethyl sulfoxide (DMSO) in the concentrations of 50, 30, 10, 3, 1, 0.3, 0.1, 0.03, and 0.01 μM and then cells were treated with the prepared compound-containing solution (100 μl). The cells were incubated at 37° C. for 24 hours. After removal of the medium from each well, the lysis buffer (25 mM Tricine pH7.8, 2 mM DTT, 2 mM EGTA, 10% glycerol, 1% Triton X-100) was added with the amount of 20 μl per each well, and the plate was stirred at room temperature for 15 minutes. The luciferase reagent (prepared by adding 10 ml of the luciferase buffer (Promega) to 1 vial of the luciferase substrate (Promega)) was added to each well with the amount of 100 μl per well, followed by assaying with a luminometer according to the manufacturer's instruction.
The dose-response curve for calculating the EC50 values of the test compounds on the increase of transcriptional activity of LXRβ was prepared using the known LXR agonist (i.e., N-(2,2,2-trifluoro-ethyl)-N-[4-(2,2,2-trifluoro-1-hydroxy-1-trifluoromethyl-ethyl)-phenyl]-benzenesulfonamide) as a positive control and the vehicle (DMSO) as a negative control. The dose-response curve was produced from the 9-point curve having different concentrations at a 1/2 log unit. The EC50 value of a test compound, which is defined as a concentration for initiating the reaction corresponding to the half value between the Top value (i.e., the maximum value) and the Bottom value (baseline), was calculated according to the following equation. Y=Bottom+(Top-Bottom)/(1+10^((log EC50-X)*Hill Slope)).
In the above equation, Y is the observed value; X is the log concentration; Hill Slope is the slope of the curve; and Top and Bottom are the maximum value of test compound and the baseline value, respectively.
The following tables 1 and 2 show the EC50 values of the test compounds measured as in the above. In the tables 1 and 2, each EC50 value represents an average value obtained from three independent tests.

Row | Molecule | Emax [fold] | EC50 [µM]
1 | OC(C1=NN(c2ccc(F)cc2F)C(c2ccc(-c3c(F)cc(-n4cnnn4)cc3F)cc2)C1)(C(F)(F)F)C(F)(F)F (stereo not shown) [Example 393, 1-(2,4-difluoro-phenyl)-5-{[2′,6′-difluoro-4′-(tetrazol-1-yl)-biphenyl]-4-yl}-3-[di-(trifluoromethyl)-hydroxy-methyl]-4,5-dihydro-1H-pyrazole] | 8 | 0.79
2 | O=S(=O)(N1CC=C(c2ccc(C3CC(C(O)(C(F)(F)F)C(F)(F)F)=NN3c3ccccc3Cl)cc2)CC1)N1CCCC1 (stereo not shown) [Example 308, 1-(2-chloro-phenyl)-5-{4-[1-(pyrrolidine-1-sulfonyl)-1,2,3,6-tetrahydropyridin-4-yl]-phenyl}-3-[di-(trifluoromethyl)-hydroxy-methyl]-4,5-dihydro-1H-pyrazole] | 36 | 0.495
3 | OCc1ccc(-c2cccc(C3CC(C(F)(F)C(F)(F)F)=NN3c3ccc(F)cc3F)c2)nc1 (stereo not shown) [Example 91, 1-(2,4-difluoro-phenyl)-5-[3-(5-hydroxymethyl-pyridin-2-yl)-phenyl]-3-pentafluoroethyl-4,5-dihydro-1H-pyrazole] | 44 | 1.46
4 | CCS(=O)(=O)N1CC=C(c2ccc(C3CC(C(O)(C(F)(F)F)C(F)(F)F)=NN3c3ccccc3Cl)cc2)CC1 (stereo not shown) [Example 299, 1-(2-chloro-phenyl)-5-[4-(1-ethanesulfonyl-1,2,3,6-tetrahydropyridin-4-yl)-phenyl]-3-[di-(trifluoromethyl)-hydroxy-methyl]-4,5-dihydro-1H-pyrazole] | 83 | 0.316
5 | 1-(2,4-difluoro-phenyl)-5-(4-fluoro-3′-methanesulfonyl-biphenyl-3-yl)-3-pentafluoroethyl-4,5-dihydroxy-1H-pyrazole [Example 141] | 127 | 0.018
6 | Fc1ccc(N2N=C(C(F)(F)C(F)(F)F)CC2c2cccc(-c3ccc(F)nc3)c2)c(F)c1 (stereo not shown) [Example 55, 1-(2,4-difluoro-phenyl)-5-[3-(6-fluoro-pyridin-3-yl)-phenyl]-3-pentafluoroethyl-4,5-dihydro-1H-pyrazole] | 73 | 4.9
7 | CS(=O)(=O)c1ccc(-c2ccc(C3CC(C(O)(C(F)(F)F)C(F)(F)F)=NN3c3ccc(F)cc3F)cc2)nc1 (stereo not shown) [Example 391, 1-(2,4-difluoro-phenyl)-5-[4-(5-methanesulfonyl-pyridin-2-yl)-phenyl]-3-[di-(trifluoromethyl)-hydroxy-methyl]-4,5-dihydro-1H-pyrazole] | 26 | 0.173
8 | O=C(c1ccccc1)N1CC=C(c2cccc(C3CC(C(O)(C(F)(F)F)C(F)(F)F)=NN3c3ccccc3Cl)c2)CC1 (stereo not shown) [Example 235, 5-[3-(1-benzoyl-1,2,3,6-tetrahydropyridin-4-yl)-phenyl]-1-(2-chloro-phenyl)-3-[di-(trifluoromethyl)-hydroxy-methyl]-4,5-dihydro-1H-pyrazole] | 63 | 0.031
9 | CN(CCCS(=O)(=O)c1cccc(-c2cccc(N3N=C(C(F)(F)C(F)(F)F)CC3c3ccc(F)cc3F)c2)c1)C(=O)OC(C)(C)C (stereo not shown) [Example 211, 5-(2,4-difluoro-phenyl)-1-{3′-[3-(N-BOC-N-methyl-amino)-propane-1-sulfonyl]-biphenyl-3-yl}-3-pentafluoroethyl-4,5-dihydro-1H-pyrazole] | 29 | 0.509
10 | Oc1cccc(-c2ccc(C3CC(C(O)(C(F)(F)F)C(F)(F)F)=NN3c3ccccc3Cl)cc2)c1 (stereo not shown) [Example 252, 1-(2-chloro-phenyl)-5-(3′-hydroxy-biphenyl-4-yl)-3-[di-(trifluoromethyl)-hydroxy-methyl]-4,5-dihydro-1H-pyrazole] | 62 | 2.35
11 | CS(=O)(=O)c1ccc(-c2cccc(C3CC(C(F)(F)C(F)(F)F)=NN3c3ccc(F)cc3F)c2)nc1 (stereo not shown) [Example 81, 1-(2,4-difluoro-phenyl)-5-[3-(5-methanesulfonyl-pyridin-2-yl)-phenyl]-3-pentafluoroethyl-4,5-dihydro-1H-pyrazole] | 78 | 1.4
